According to ChEMBL document CHEMBL1134934, “Synthesis and evaluation of 5-HT(2A) and 5-HT(2C) receptor binding affinities of novel pyrimidine derivatives” (Bioorg Med Chem Lett, 2002):

Assays:
[1] = molecular target: T1, 5-hydroxytryptamine receptor 2C (Homo sapiens) (UniProt P28335); assay: Binding affinity towards 5-hydroxytryptamine 2C receptor was determined at a concentration of 0.00001 mol/L
T1 sequence (whole entry): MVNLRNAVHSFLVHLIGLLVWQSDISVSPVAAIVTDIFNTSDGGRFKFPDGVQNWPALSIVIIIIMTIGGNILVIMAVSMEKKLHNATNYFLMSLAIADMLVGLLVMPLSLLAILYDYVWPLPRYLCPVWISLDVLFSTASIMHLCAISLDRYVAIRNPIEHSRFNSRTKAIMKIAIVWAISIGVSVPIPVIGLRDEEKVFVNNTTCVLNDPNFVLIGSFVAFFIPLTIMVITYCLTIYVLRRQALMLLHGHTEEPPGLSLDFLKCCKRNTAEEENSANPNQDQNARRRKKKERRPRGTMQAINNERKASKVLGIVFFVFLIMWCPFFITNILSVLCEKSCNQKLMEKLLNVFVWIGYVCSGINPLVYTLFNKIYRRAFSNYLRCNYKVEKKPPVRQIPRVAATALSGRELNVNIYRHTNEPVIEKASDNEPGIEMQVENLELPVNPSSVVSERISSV

[2] = molecular target: T2, 5-hydroxytryptamine receptor 2A (Homo sapiens, UniProt P28223); assay: Binding affinity towards 5-hydroxytryptamine 2A receptor was determined at a concentration of 0.00001 mol/L
[3] = molecular target: Serotonin 2 receptors; 5-HT2a & 5-HT2c (Homo sapiens) (UniProt P28223+P28335); assay: Relative affinity for 5-HT2C over 5-HT2A receptors; format: protein assay
[4] = molecular target: T3, 5-hydroxytryptamine receptor 2C (Homo sapiens, UniProt P28335); assay: Affinity for 5-hydroxytryptamine 2C receptor
T3 sequence (P28335 whole entry): T1 sequence (whole entry)

[5] = molecular target: T2, 5-hydroxytryptamine receptor 2A; assay: Affinity for 5-hydroxytryptamine 2A receptor
[6] = molecular target: T2, 5-hydroxytryptamine receptor 2A; assay: Binding affinity towards 5-hydroxytryptamine 2A receptor was determined at a concentration of 0.000001 mol/L
[7] = molecular target: T1, 5-hydroxytryptamine receptor 2C (Homo sapiens); assay: Binding affinity towards 5-hydroxytryptamine 2C receptor was determined at a concentration of 0.000001 mol/L

Chain of Serotonin 2 receptors; 5-HT2a & 5-HT2c (Homo sapiens) (P28223 whole entry, looked up, one chain of several): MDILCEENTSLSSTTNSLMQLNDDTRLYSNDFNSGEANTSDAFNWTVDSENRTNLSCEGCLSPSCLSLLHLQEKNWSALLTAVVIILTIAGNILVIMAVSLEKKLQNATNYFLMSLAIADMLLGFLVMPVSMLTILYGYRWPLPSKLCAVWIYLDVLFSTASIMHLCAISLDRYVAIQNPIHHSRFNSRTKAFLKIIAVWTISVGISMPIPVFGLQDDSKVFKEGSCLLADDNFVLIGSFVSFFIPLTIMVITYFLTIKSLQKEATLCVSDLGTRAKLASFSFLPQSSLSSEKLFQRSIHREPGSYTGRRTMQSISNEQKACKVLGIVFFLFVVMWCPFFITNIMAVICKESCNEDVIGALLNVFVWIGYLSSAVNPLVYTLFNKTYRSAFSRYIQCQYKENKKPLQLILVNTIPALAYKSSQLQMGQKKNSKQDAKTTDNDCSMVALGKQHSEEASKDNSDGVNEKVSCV
T2 sequence (P28223 whole entry): as the sequence (P28223 whole entry, looked up, one chain of several) above

**Q.** With `Nc1cc(N)nc(SCCCN2CCN(Cc3ccc([N+](=O)[O-])cc3)CC2)n1` as the molecule, how does the inhibition [1] read?
**A.** The inhibition was 21%.

**Q.** What about the inhibition [2] of the same molecule?
**A.** Its inhibition is 54%.

**Q.** Which results are given for `CCOc1ccccc1Cc1c(N)nc(SCCN2CCN(Cc3cccc(C(F)(F)F)c3)CC2)nc1N`?
**A.** Ratio [3]: 7.7; Ki [4]: 9.1 nM; Ki [5]: 69.9 nM

**Q.** For `Nc1nc(SCCN2CCN(Cc3ccc([N+](=O)[O-])cc3)CC2)nc(N)c1Cc1ccccc1`, which inhibition [6] is on record?
**A.** Its inhibition is 99%.

**Q.** What about the inhibition [7] of the same molecule?
**A.** Its inhibition is 67%.

**Q.** How did the inhibition [1] turn out when `Nc1cc(N)nc(SCCN2CCN(Cc3ccc([N+](=O)[O-])cc3)CC2)n1` was run?
**A.** The inhibition was 77%.

**Q.** And the inhibition [2]?
**A.** The inhibition was 89%.

**Q.** Which results are given for `COc1ccc(Cc2c(N)nc(SCCN3CCN(Cc4ccc(C)cc4)CC3)nc2N)cc1`?
**A.** Ratio [3]: 0.04; Ki [4]: 300 nM; Ki [5]: 12.5 nM

**Q.** How did the Ratio [3] turn out when `COc1ccccc1Cc1c(N)nc(SCCN2CCN(Cc3ccccc3C(F)(F)F)CC2)nc1N` was run?
**A.** Its Ratio is 6.2.

**Q.** What about the Ki [4] of the same molecule?
**A.** Its Ki is 7.7 nM.

**Q.** And the Ki [5]?
**A.** Its Ki is 47.7 nM.

**Q.** Which Ratio [3] does the source give for `Nc1nc(SCCN2CCN(Cc3ccccc3C(F)(F)F)CC2)nc(N)c1Cc1ccccc1` here?
**A.** The Ratio was 2.9.

**Q.** What about the Ki [4] of the same molecule?
**A.** Its Ki is 21.4 nM.

**Q.** What about the Ki [5] of the same molecule?
**A.** Its Ki is 61.1 nM.

**Q.** Which results are given for `CC(C)Oc1ccccc1Cc1c(N)nc(SCCN2CCN(Cc3cccc(C(F)(F)F)c3)CC2)nc1N`?
**A.** Ratio [3]: 14; Ki [4]: 8.6 nM; Ki [5]: 121 nM

**Q.** What does the source list for `Nc1nc(SCCN2CCN(Cc3ccccc3Cl)CC2)nc(N)c1Cc1ccccc1O`?
**A.** Ratio [3]: 4.2; Ki [4]: 5.5 nM; Ki [5]: 22.8 nM

**Q.** How did the inhibition [1] turn out when `Nc1nc(SCCN2CCN(Cc3ccc([N+](=O)[O-])cc3)CC2)nc(N)c1CC1CCCCC1` was run?
**A.** The inhibition was 32%.

**Q.** And the inhibition [2]?
**A.** Its inhibition is 10%.

**Q.** `Nc1nc(SCCN2CCN(Cc3cccc(C(F)(F)F)c3)CC2)nc(N)c1Cc1ccccc1O` was tested. Which Ratio [3] did it give?
**A.** Its Ratio is 15.

**Q.** What about the Ki [4] of the same molecule?
**A.** Its Ki is 6.2 nM.

**Q.** And the Ki [5]?
**A.** The Ki was 93.2 nM.

**Q.** For `COc1ccc(Cc2c(N)nc(SCCN3CCN(Cc4ccccc4C)CC3)nc2N)cc1`, which Ratio [3] is on record?
**A.** Its Ratio is 0.7.

**Q.** What about the Ki [4] of the same molecule?
**A.** The Ki was 16.4 nM.

**Q.** And the Ki [5]?
**A.** The Ki was 11.5 nM.

**Q.** How did the Ratio [3] turn out when `COc1ccc(Cc2c(N)nc(SCCN3CCN(Cc4ccccc4Cl)CC3)nc2N)cc1` was run?
**A.** The Ratio was 0.6.

**Q.** And the Ki [4]?
**A.** The Ki was 10.4 nM.

**Q.** And the Ki [5]?
**A.** The Ki was 5.7 nM.

**Q.** For `COc1cc(Cc2c(N)nc(SCCN3CCN(Cc4ccccc4Cl)CC3)nc2N)cc(OC)c1OC`, which Ratio [3] is on record?
**A.** The Ratio was 0.2.

**Q.** And the Ki [4]?
**A.** Its Ki is 18.3 nM.

**Q.** What about the Ki [5] of the same molecule?
**A.** Its Ki is 4.3 nM.

**Q.** Which results are given for `COc1ccccc1Cc1c(N)nc(SCCN2CCN(Cc3cccc(C(F)(F)F)c3)CC2)nc1N`?
**A.** Ratio [3]: 11; Ki [4]: 5.5 nM; Ki [5]: 60.4 nM

**Q.** For `Nc1nc(SCCN2CCN(Cc3ccccc3Cl)CC2)nc(N)c1Cc1ccccc1`, which Ratio [3] is on record?
**A.** Its Ratio is 1.5.

**Q.** And the Ki [4]?
**A.** The Ki was 11.9 nM.

**Q.** And the Ki [5]?
**A.** The Ki was 18.3 nM.

**Q.** Which results are given for `Nc1nc(SCCN2CCN(Cc3ccccc3Cl)CC2)nc(N)c1Cc1ccccc1Cl`?
**A.** Ratio [3]: 1.4; Ki [4]: 8.7 nM; Ki [5]: 11.8 nM

**Q.** For `COc1cccc(Cc2c(N)nc(SCCN3CCN(Cc4cccc(C(F)(F)F)c4)CC3)nc2N)c1`, which Ratio [3] is on record?
**A.** The Ratio was 9.1.

**Q.** And the Ki [4]?
**A.** The Ki was 4.9 nM.

**Q.** And the Ki [5]?
**A.** The Ki was 44.6 nM.
